Key:
[1] = test system: CB1; conditions: cited from earlier work
[2] = target: T1, hCB1R (Homo sapiens, UniProt P21554); assay type: cell-based
[3] = target: CB1 (Mus musculus, UniProt P47746); test: [35S]GTPγS binding to CB1 in C57 mouse cerebellum membranes; assay type: biochemical
[4] = test system: hCB1 Phe170^2.57Ala or Phe174^2.61Ala; test: Functional studies in mutant hCB1-CHO cells, Phe170Ala or Phe174Ala; assay type: cell-based, human
[5] = target: T1, hCB1R; assay type: cell-based; remark: listed apart in the source
[6] = target: hCB1 WT receptor (Homo sapiens, UniProt P21554); test: biochemical; assay type: binding
[7] = target: WT CB1 (Homo sapiens, UniProt P21554); test: Wash out experiment followed by [3H]-CP55,940 saturation binding
[8] = test system: hCB1 Phe170^2.57Trp or Phe174^2.61Trp; test: Functional studies in mutant hCB1-CHO cells, Phe170Trp or Phe174Trp; assay type: cell-based, human; conditions: Phe170Ala/Trp or Phe174Ala/Trp vs WT
[9] = agonist, mouse cerebellum, mean ± S.E.M.

CB1 (Mus musculus, UniProt P47746), sequence (P47746 whole entry): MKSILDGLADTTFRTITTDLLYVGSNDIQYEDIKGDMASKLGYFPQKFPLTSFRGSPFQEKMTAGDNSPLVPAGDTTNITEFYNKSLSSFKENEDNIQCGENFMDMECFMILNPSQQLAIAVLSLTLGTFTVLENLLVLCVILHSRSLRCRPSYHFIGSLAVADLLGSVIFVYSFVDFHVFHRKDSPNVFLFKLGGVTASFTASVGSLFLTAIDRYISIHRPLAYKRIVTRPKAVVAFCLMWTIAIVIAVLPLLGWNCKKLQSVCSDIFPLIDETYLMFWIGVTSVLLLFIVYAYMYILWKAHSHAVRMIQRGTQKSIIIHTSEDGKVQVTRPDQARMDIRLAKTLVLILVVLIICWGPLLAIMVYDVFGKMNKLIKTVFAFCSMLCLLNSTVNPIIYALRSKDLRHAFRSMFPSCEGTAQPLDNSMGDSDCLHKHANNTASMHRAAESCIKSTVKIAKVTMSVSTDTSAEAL
T1 sequence (P21554 whole entry): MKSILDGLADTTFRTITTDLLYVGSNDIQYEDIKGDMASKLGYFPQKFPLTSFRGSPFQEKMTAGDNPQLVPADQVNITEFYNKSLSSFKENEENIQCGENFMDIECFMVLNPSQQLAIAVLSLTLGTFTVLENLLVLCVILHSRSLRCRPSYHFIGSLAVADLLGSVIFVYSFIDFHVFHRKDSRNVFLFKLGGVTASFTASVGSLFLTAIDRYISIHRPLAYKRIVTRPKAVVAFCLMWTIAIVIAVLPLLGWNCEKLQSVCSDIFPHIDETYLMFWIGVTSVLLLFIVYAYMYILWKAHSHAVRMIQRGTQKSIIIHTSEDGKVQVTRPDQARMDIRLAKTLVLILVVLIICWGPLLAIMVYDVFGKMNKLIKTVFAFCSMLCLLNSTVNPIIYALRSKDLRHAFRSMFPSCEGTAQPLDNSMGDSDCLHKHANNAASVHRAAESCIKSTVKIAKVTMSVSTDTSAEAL
hCB1 WT receptor, sequence (P21554 whole entry): as above
WT CB1, sequence (P21554 whole entry): as above

## Cc1c(C(=O)NN2CCS(=O)(=O)CC2)nn(-c2ccc(Cl)cc2Cl)c1-c1ccc(C#CCCC#N)cc1 [AM6545]
[1]; ref Tam et al., 2010
  Affinity and mode of action at CB1: high affinity CB1 neutral antagonist

## Cc1c(C(=O)NN2CCCCC2)nn(-c2ccc(Cl)cc2Cl)c1-c1ccc(C#CCCO[N+](=O)[O-])cc1 [AM6538, 4-(4-(1-(2,4-dichlorophenyl)-4-methyl-3-(piperidin-1-ylcarbamoyl)-1H-pyrazol-5-yl)phenyl)but-3-yn-1-yl nitrate]
[2]
  Mode of antagonism of CB1-mediated inhibition of adenylyl cyclase activity: competitive antagonist
[3]
  Mode of antagonism of [35S]-GTPγS binding: Competitive antagonism was confirmed
[4]
  Effect of mutation on antagonist functional affinity: dramatically reduced functional affinity
[5]
  Mode of antagonism of β-arrestin2 recruitment: competitive antagonist
[6]
  Ki: 3.4 ± 1 nM
  Percentage of remaining binding (Bmax) of [3H]-CP55,940: ~ 30%
[7]
  Effect on subsequent [3H]-CP55,940 binding after pretreatment and washout: wash-resistant binding

## CCCCCCC(C)(C)c1ccc([C@@H]2C[C@H](O)CC[C@H]2CCCO)c(O)c1 [CP55,940]
[3]; [9]
  EC50: 63 ± 5.5 nM
  Emax: 2.40 ± 0.04 fold over baseline
[4]; Phe170Ala or Phe174Ala vs WT
  Effect of mutation on agonist potency: neither mutation alters the potency
[8]
  Effect of mutation on agonist potency: do not alter the potency

## Cc1c(C(=O)NN2CCCCC2)nn(-c2ccc(Cl)cc2Cl)c1-c1ccc(Cl)cc1 [rimonabant]
[4]
  Effect of mutation on antagonist functional affinity: dramatically reduced functional affinity

## C[C@H](NC(=O)C(C)(C)Oc1ccc(C(F)(F)F)cn1)[C@@H](Cc1ccc(Cl)cc1)c1cccc(C#N)c1 [Taranabant]
[1]; among rimonabant, otenabant and taranabant, ref Table S2
  Affinity with CB1: highest affinity

— PMC5322940 (Cell, 2016)
